{
  "source": "patent US6514941B1",
  "about": "“Method of preparing a casein hydrolysate enriched in anti-hypertensive peptides” (Campina Melkunie B.V., priority 1999, dated 2003)",
  "origin": "cited, not measured here",
  "test_system": "SHRSP",
  "details": "dose that is not hypotensive",
  "data": [
    {"smiles": "C[C@H](CS)C(=O)N1CCC[C@H]1C(=O)O", "note": "[captopril]", "values": [
      {"measurement": "onset of stroke", "result": "inhibits the onset of stroke"}
    ]}
  ]
}
